Test results taken from article PMC12154787, “Comprehensive Evaluation of the Effects of Hot Air Drying Temperature on the Chemical Composition, Flavor Characteristics and Biological Activity of Houttuynia cordata Thunb” (Foods, 2025).

Assays:
[1] = Pharmacokinetics of HCT constituents in rat plasma after a single dose of HCT extract; format: in vivo, SD rats
Experimental: The quantification of target compounds was conducted using an LC-TQ5200 triple quadrupole mass spectrometer (Hexin Instruments, Guangzhou, China) coupled with a HILIC column (100 × 2.1 mm, 1.8 μm; ANPEL, Shanghai, China). Chromatographic separation was achieved under isocratic conditions with a mobile phase comprising (A) 0.1% formic acid in water and (B) acetonitrile (50:50, v/v) for 4 min at a flow rate of 0.3 mL/min. The column temperature was maintained at 30 °C with a 10 μL injection volume.
Mass spectrometric detection was performed in positive electrospray ionization (ESI) mode with multiple reaction monitoring (MRM). The optimized ion source parameters were as follows: drying gas temperature, 500 °C; spray voltage, 5500 V; nebulizer gas pressure, 70 psi (482.3 kPa); drying gas flow, 8 L/min; and curtain gas flow, 3 L/min. The collision cell operated with 0.4 mL/min collision gas flow under the following voltage settings: curtain plate 800 V, orifice 70 V, detector 2300 V, with cell entrance and exit voltages of 30 V and 1 V, respectively. All analyses were performed with three replicates (n = 3).
(§1) The animal study protocol was approved by the Animal Ethics Committee of Jiangxi University of Chinese Medicine (Approval No. TEMPOR20230112). A total of 24 female SD rats (200 ± 20 g) were obtained from the Laboratory Animal Center of Jiangxi University of Chinese Medicine (Nanchang, China). Prior to experimentation, the rats were acclimated for 7 days in an air-conditioned room maintained at 24 ± 1 °C with a 12 h light/dark cycle. After one week of acclimatization with ad libitum access to sterilized food and water, the rats were randomly divided into three groups (n = 8), including a negative control, FDH: freeze-dried HCT extract (treated with 600 mg/kg BW freeze-dried HCT extracts), 50H: 50 °C hot-air dried HCT extract (treated with 600 mg/kg BW 50 °C hot-air dried HCT extracts). Blood collection and the pretreatment of serum were conducted following our previously published protocols. The identification and quantification of metabolites in rat samples were performed using analytical methodologies consistent with those employed in our previous investigations.

[2] = Metabolite identification in rat serum by UPLC-LTQ-Orbitrap-MS2 after HCT extract; format: in vivo, SD rats; details: for Metabolite detected in Serum, 50H: 50H group (600 mg/kg BW 50 °C hot-air dried HCT extract); for Metabolite detected in Serum, FDH: FDH group (600 mg/kg BW freeze-dried HCT extract); as to all read-outs here: key: +: detected; —: undetected
Experimental: The chromatographic separation was performed on an ACQUITY UPLC BEH C18 column (2.1 × 100 mm, 1.7 μm) maintained at 25 °C. […] The mobile phase flow rate was maintained at 300 μL/min with a 2 μL injection volume.
Mass spectrometric detection was carried out using an LTQ-Orbitrap system equipped with a HESI-II source operating in both positive and negative ionization modes. Full scan MS data were acquired over m/z 50–2000 with mass resolution set to 30,000 (at m/z 400). For structural elucidation, data-dependent MS/MS scans were triggered using a normalized collision energy of 45 eV in the CID cell. The diode array detector was simultaneously monitored at 280 nm and 320 nm. All instrumental operations and data acquisition were controlled by Xcalibur v2.0 software (Thermo Scientific).
as §1, with “Prior to experimentation, the rats were acclimated for 7 days in an air-conditioned room maintained at 24 ± 1 °C with a 12 h light/dark cycle.” left out

[3] = female, SD, 50H: 600 mg/kg BW 50 °C hot-air dried HCT extract
[4] = female, SD, rat, plasma, 600 mg/kg, 50H: 600 mg/kg BW 50 °C hot-air dried HCT extract
[5] = female, SD, rat, plasma, 600 mg/kg, FDH: 600 mg/kg BW freeze-dried HCT extract
[6] = 50H: 600 mg/kg BW 50 °C hot-air dried HCT extract

Row | Metabolite detected in Serum, 50H [2] | Metabolite detected in Serum, FDH [2] | Structure (SMILES) | AUC [1, 4] [µM·h] | AUC [1, 5] [µM·h] | Cmax [1, 5] [nM] | other results
1 | – | – | O=C(/C=C/c1ccc(O)c(O)c1)O[C@@H]1C[C@](O)(C(=O)O)C[C@@H](O)[C@H]1O [Chlorogenic acid, chlorogenic acid] | 0.222 ± 0.0225 | 0.231 ± 0.00787 | 104 ± 9.47 | Tmax [1, 3]: 1.5 h; Cmax [1, 4]: 84.4 ± 2.26 nM; half-life [1, 4]: 2.05 ± 0.62 h; half-life [1, 5]: 2.25 ± 0.7 h
2 | + | + | O=C(O)c1ccc(O)c(O)c1 [M2, protocatechuic acid] | – | – | – | –
3 | + | + | COc1cc(C(=O)O)ccc1OC(C)=O [M3, 4-acetyloxy-3-methoxybenzoic acid] | – | – | – | –
4 | + | + | O=C(O)CCc1ccc(O)c(O)c1 [M10, dihydrocaffeic acid] | – | – | – | –
5 | + | – | CC(O)CC(=O)O (stereo not shown) [M13, 3-hydroxybutyrate] | – | – | – | –
6 | – | + | O=c1cc(-c2ccc(O)cc2)oc2cc(O)cc(O)c12 [M23, apigenin] | – | – | – | –
7 | + | + | CCCCCCCCCC(=O)CC(=O)O [M27, decanoyl acetic acid] | – | – | – | –
8 | + | + | CCCCCCCCC=CCCCCCCCC(=O)O [M37, 9-octadecenoic acid] | – | – | – | –
9 | – | – | O=c1c(O)c(-c2ccc(O)c(O)c2)oc2cc(O)cc(O)c12 [Quercetin, quercetin] | 2.32 ± 0.0574 | 2.551 ± 0.017 | 410 ± 12 | Cmax [1, 6]: 378 ± 21.4 nM; T1/2 [1, 6]: 7.28 ± 4.47 h; T1/2 ([1]; FDH: 600 mg/kg BW freeze-dried HCT extract): 4.46 ± 0.14 h; Tmax [1, 3]: 2 h
10 | – | – | C[C@@H]1O[C@@H](OC[C@H]2O[C@@H](Oc3c(-c4ccc(O)c(O)c4)oc4cc(O)cc(O)c4c3=O)[C@H](O)[C@@H](O)[C@@H]2O)[C@H](O)[C@H](O)[C@H]1O [Rutin, rutin] | 0.277 ± 0.0123 | 0.328 ± 0.00568 | 136 ± 16 | Tmax [1, 3]: 1 h; Cmax [1, 4]: 125 ± 4.95 nM; half-life [1, 4]: 2.04 ± 0.5 h; half-life [1, 5]: 2.61 ± 1.23 h
11 | – | – | O=C(O)[C@H]1O[C@@H](Oc2cc3oc(-c4ccc(O)cc4)cc(=O)c3c(O)c2O)[C@H](O)[C@@H](O)[C@@H]1O [Scutellarin, scutellarin] | 0.121 ± 0.00462 | 0.116 ± 0.00702 | 23.9 ± 3.17 | Tmax ([1]; female, SD, FDH: 600 mg/kg BW freeze-dried HCT extract): 1.5 h; Cmax [1, 4]: 22 ± 4.15 nM; half-life [1, 4]: 9.26 ± 4.35 h; half-life [1, 5]: 6.91 ± 0.65 h

Row | Structure (SMILES) | Metabolite detected in Serum, 50H [2] | Metabolite detected in Serum, FDH [2] | AUC [1, 4] [µM·h] | AUC [1, 5] [µM·h] | Cmax [1, 5] [nM] | other results
12 | Nc1ccc(CCC(=O)O)c(C(=O)O)c1 [M14] | + | + | – | – | – | –
13 | COc1c(O)cc2oc(-c3ccc(O)cc3)cc(=O)c2c1O [M18, hispidulin] | – | + | – | – | – | –
